# Reference: ChEMBL document CHEMBL1122179, “1-(alkylamino)isochromans: hypotensives with peripheral and central activities” (J Med Chem, 1982)
# Molecular target: T1, Adrenergic receptor alpha-1 (Rattus norvegicus, UniProt P15823+P23944+P43140)
# T1 sequence (P15823 whole entry): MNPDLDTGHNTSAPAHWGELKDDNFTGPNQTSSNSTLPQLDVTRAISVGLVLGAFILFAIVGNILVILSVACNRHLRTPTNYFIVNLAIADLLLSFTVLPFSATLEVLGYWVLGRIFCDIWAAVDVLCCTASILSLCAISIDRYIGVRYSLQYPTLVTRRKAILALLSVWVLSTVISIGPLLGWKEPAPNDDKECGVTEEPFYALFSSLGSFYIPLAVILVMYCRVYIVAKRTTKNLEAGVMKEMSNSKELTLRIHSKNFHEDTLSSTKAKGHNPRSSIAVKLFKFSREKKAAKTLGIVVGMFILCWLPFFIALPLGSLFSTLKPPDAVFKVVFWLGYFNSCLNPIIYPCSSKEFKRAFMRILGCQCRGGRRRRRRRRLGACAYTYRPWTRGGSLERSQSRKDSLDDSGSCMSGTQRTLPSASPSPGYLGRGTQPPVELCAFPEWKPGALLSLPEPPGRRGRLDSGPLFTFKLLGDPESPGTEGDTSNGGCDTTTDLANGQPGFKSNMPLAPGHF
# T1 sequence (P23944 whole entry): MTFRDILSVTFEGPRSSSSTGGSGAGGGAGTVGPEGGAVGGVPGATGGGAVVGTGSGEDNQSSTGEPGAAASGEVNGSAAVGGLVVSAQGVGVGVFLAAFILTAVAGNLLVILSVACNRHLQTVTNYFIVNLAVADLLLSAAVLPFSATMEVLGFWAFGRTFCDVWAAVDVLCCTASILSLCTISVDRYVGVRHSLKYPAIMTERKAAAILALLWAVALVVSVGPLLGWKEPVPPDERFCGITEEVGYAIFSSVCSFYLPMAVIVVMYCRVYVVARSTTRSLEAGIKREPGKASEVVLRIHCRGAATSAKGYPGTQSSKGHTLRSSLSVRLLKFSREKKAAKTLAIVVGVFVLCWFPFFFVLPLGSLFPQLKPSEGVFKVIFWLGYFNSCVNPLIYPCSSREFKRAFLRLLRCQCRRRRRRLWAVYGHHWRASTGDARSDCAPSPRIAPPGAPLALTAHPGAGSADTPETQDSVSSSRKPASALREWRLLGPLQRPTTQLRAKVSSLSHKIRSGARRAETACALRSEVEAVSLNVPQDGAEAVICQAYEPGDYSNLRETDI
# T1 sequence (P43140 whole entry): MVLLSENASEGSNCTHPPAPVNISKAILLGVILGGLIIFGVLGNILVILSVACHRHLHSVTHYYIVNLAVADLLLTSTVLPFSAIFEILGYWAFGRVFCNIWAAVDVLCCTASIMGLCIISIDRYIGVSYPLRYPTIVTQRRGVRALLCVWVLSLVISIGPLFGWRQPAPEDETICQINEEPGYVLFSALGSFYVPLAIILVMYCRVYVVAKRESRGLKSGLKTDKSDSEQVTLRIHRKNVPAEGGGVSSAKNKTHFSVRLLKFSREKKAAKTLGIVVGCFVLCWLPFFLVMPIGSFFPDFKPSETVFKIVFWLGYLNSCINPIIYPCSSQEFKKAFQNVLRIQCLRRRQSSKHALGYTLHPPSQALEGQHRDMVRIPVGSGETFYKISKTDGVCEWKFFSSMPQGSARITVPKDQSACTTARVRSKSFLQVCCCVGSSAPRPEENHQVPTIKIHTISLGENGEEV
# Assay: Compound was tested for the inhibition of [3H]prazosin binding alpha-1-adrenergic receptor of crude rat brain membrane.
smiles,measurement,value
COc1cc2c(cc1OC)C(CCN1CCN(c3ccc(F)cc3)CC1)OCC2 (stereo unspecified),Ki,4 nM
